Experimental findings from US7411076B2, “Coumarin derivative” (Institute of Medicinal Molecular Design, Inc., priority 2002, dated 2008) are described below.

For one assay, the system named is Jurkat cells. Nature of the assay: Jurkat cell proliferation, compound alone or in combination with bleomycin, living cells counted by the MTS method. It counts as cell-based. The note with it: Jurkat cells, combined with bleomycin 5 μg/ml or 10 μg/ml, 36 hours, survival rate vs DMSO control. On the procedure: By using these compounds, effects on proliferation of Jurkat cells by sole administration and inhibitory effects on cell proliferation by administration in combination with bleomycin were examined. Materials and methods are as follows. Jurkat cells obtained from Dainippon Pharmaceutical Co. Ltd. were inoculated at about 10,000 cells per well in a 96 well culture plate, and incubated in 10% bovine fetal serum (Irvine Scientific) supplemented with RPMI1640(ICN) medium in 5% CO2 incubator at 37° C. […] 36 hours after the incubation, the number of living cells was counted by the MTS method.
More specifically, 20 μl of CellTiter96™ AQueous One Solution (Promega) was added per one well, and after the cells were incubated for additional one hour, an absorbance at 490 nm was measured by using a microplate reader. The same culture added with DMSO as a solvent at final concentration of 0.25% was used as a control. The number of cells in the control was considered as 100% survival rate, and for each compound, survival rates by sole administration or a combined administration were calculated. […] In the table, ++ indicates observation of remarkable enhancement, + indicates moderated enhancement, and ± indicates weak enhancement.
With `O=C(Nc1cc2ccc(O)cc2oc1=O)c1ccccc1` [Compound 1, N-(7-hydroxy-2-oxo-2H-1-benzopyran-3-yl)benzamide], the “Activity (enhancement of the inhibitory effect of bleomycin on cell proliferation)” value was “±”.
Take `O=C(Nc1cc2ccc(O)cc2oc1=O)c1ccccc1Cl` [Compound 2, 2-chloro-N-(7-hydroxy-2-oxo-2H-1-benzopyran-3-yl)benzamide]: the “Activity (enhancement of the inhibitory effect of bleomycin on cell proliferation)” value is reported as “+”.
Same read-out and setting: in the case of `O=C(Nc1cc2ccc(O)cc2oc1=O)c1cccc(Cl)c1` [Compound 3, 3-chloro-N-(7-hydroxy-2-oxo-2H-1-benzopyran-3-yl)benzamide] it was “+”; in that of `O=C(Nc1cc2ccc(O)cc2oc1=O)c1cccc(Br)c1` [Compound 4, 3-bromo-N-(7-hydroxy-2-oxo-2H-1-benzopyran-3-yl)benzamide], “+”.
`O=C(Nc1cc2ccc(O)cc2oc1=O)c1ccc(Cl)cc1` [Compound 5, 4-chloro-N-(7-hydroxy-2-oxo-2H-1-benzopyran-3-yl)benzamide]: the “Activity (enhancement of the inhibitory effect of bleomycin on cell proliferation)” value is recorded as “±”.
As to `O=C(Nc1cc2ccc(O)cc2oc1=O)c1ccc(F)cc1` [Compound 6, 4-fluoro-N-(7-hydroxy-2-oxo-2H-1-benzopyran-3-yl)benzamide], the “Activity (enhancement of the inhibitory effect of bleomycin on cell proliferation)” value is “±”.
Same read-out and setting: in the case of `Cc1ccccc1C(=O)Nc1cc2ccc(O)cc2oc1=O` [Compound 8, N-(7-hydroxy-2-oxo-2H-1-benzopyran-3-yl)-2-methylbenzamide] it was “+”; in that of `O=C(Nc1cc2ccc(O)cc2oc1=O)c1ccc(C(F)(F)F)cc1` [Compound 13, N-(7-hydroxy-2-oxo-2H-1-benzopyran-3-yl)-4-(trifluoromethyl)benzamide], “+”; in that of `O=C(Nc1cc2ccc(O)cc2oc1=O)c1ccc(-c2ccccc2)cc1` [Compound 14, N-(7-hydroxy-2-oxo-2H-1-benzopyran-3-yl)-[1,1′-biphenyl]-4-carboxamide], “++”.
Take `COc1ccccc1C(=O)Nc1cc2ccc(O)cc2oc1=O` [Compound 15, N-(7-hydroxy-2-oxo-2H-1-benzopyran-3-yl)-2-methoxybenzamide]: the “Activity (enhancement of the inhibitory effect of bleomycin on cell proliferation)” value is “±”.
The same measure, in the same setting: in the case of `COc1cccc(C(=O)Nc2cc3ccc(O)cc3oc2=O)c1` [Compound 16, N-(7-hydroxy-2-oxo-2H-1-benzopyran-3-yl)-3-methoxybenzamide] it was “±”; in that of `O=C(Nc1cc2ccc(O)cc2oc1=O)c1ccc([N+](=O)[O-])cc1` [Compound 20, N-(7-hydroxy-2-oxo-2H-1-benzopyran-3-yl)-4-nitrobenzamide], “±”; in that of `COC(=O)c1ccc(C(=O)Nc2cc3ccc(O)cc3oc2=O)cc1` [Compound 21, 4-[[N-(7-hydroxy-2-oxo-2H-1-benzopyran-3-yl)amino]carbonyl]benzoic acid methyl ester], “±”.
Consider `N#Cc1ccc(C(=O)Nc2cc3ccc(O)cc3oc2=O)cc1` [Compound 22, 4-cyano-N-(7-hydroxy-2-oxo-2H-1-benzopyran-3-yl)benzamide], for which the “Activity (enhancement of the inhibitory effect of bleomycin on cell proliferation)” value is “+”.
`O=C(Nc1cc2ccc(O)cc2oc1=O)c1cccc2ccccc12` [Compound 23, N-(7-hydroxy-2-oxo-2H-1-benzopyran-3-yl)-1-naphthalenecarboxamide]: the “Activity (enhancement of the inhibitory effect of bleomycin on cell proliferation)” value was “+”.
Take `O=C(Nc1cc2ccc(O)cc2oc1=O)c1ccc2ccccc2c1` [Compound 24, N-(7-hydroxy-2-oxo-2H-1-benzopyran-3-yl)-2-naphthalenecarboxamide]: the “Activity (enhancement of the inhibitory effect of bleomycin on cell proliferation)” value is “±”.
For the compound `O=C(Nc1cc2ccc(O)cc2oc1=O)c1ccco1` [Compound 25, N-(7-hydroxy-2-oxo-2H-1-benzopyran-3-yl)-2-furancarboxamide], the “Activity (enhancement of the inhibitory effect of bleomycin on cell proliferation)” value is “±”.
Turning to `O=C(Nc1cc2ccc(O)cc2oc1=O)c1cccs1` [Compound 26, N-(7-hydroxy-2-oxo-2H-1-benzopyran-3-yl)-2-thiophenecarboxamide], the “Activity (enhancement of the inhibitory effect of bleomycin on cell proliferation)” value is reported as “±”.
As to `O=C(Nc1cc2ccc(O)cc2oc1=O)c1cccnc1Cl` [Compound 27, 2-chloro-N-(7-hydroxy-2-oxo-2H-1-benzopyran-3-yl)-3-pyridinecarboxamide], the “Activity (enhancement of the inhibitory effect of bleomycin on cell proliferation)” value was “±”.
On the same count and under the same terms, for `O=C(Nc1cc2ccc(O)cc2oc1=O)c1ccc2c(c1)OCO2` [Compound 28, N-(7-hydroxy-2-oxo-2H-1-benzopyran-3-yl)-1,3-benzodioxole-5-carboxamide] the value was “±”; for `CC(C)(C)C(=O)Nc1cc2ccc(O)cc2oc1=O` [Compound 29, N-(7-hydroxy-2-oxo-2H-1-benzopyran-3-yl)-2,2-dimethylpropanamide], “±”.
Take `O=C(Cc1ccccc1)Nc1cc2ccc(O)cc2oc1=O` [Compound 30, N-(7-hydroxy-2-oxo-2H-1-benzopyran-3-yl)benzeneacetamide]: the “Activity (enhancement of the inhibitory effect of bleomycin on cell proliferation)” value is recorded as “+”.

Still in this assay, the particulars now being: bleomycin alone at 5 μg/ml or 10 μg/ml, 36 hours, DMSO control = 100% survival.
In the case of bleomycin [reference compound], the “decrease in the survival rates of the Jurkat cells” value fell in the range of 5 to 10%.
